Here are results for two compounds from US7531500B2, “Preventing airway mucus production by administration of EGF-R antagonists” (The Regents of the University of California, priority 1998, dated 2009).

Experiment [1] has as its system NCI-H292 cells. Description: Immunoassay of MUC5AC protein in NCI-H292 cells (Example 2). The format is cell-based, human. The method, then:
Cell Culture. NCI-H292 cells, a human pulmonary mucoepidermoid carcinoma cell line, were grown in RPMI 1640 medium containing 10% fetal bovine serum, penicillin (100 U/ml), streptomycin (100 μg/ml) and Hepes (25 mM) at 37° C. in a humidified 5% CO2, water-jacketed incubator. Either 6-well culture plates or 8-chamber slides were used to culture the cells. […] The cells were then washed and incubated with fresh medium alone. Experiments were terminated at preselected times (for mRNA, 6 h and 12 h; for protein, 24 h). As controls, cells were incubated with medium alone for same time periods. […] In inhibition studies with blocking antibodies to EGF-R ligands, the supernatants were pretreated with anti-TGFα antibody (Calbiochem) or anti-EGF antibody for 30 min and then added to NCI-H292 cells. The role of oxygen free radicals was examined using scavengers of oxygen free radical DMSO (1%, Sigma), 1,3-dimethyl-2-thiourea (DMTU, 50 mM, Sigma), or superoxide dismutase (SOD, 300 U/ml, Sigma).
Preparation of Cigarette Smoke Solution. Research cigarettes (code2R1, produced for the University of Kentucky Tobacco and Health Research Foundation) were used in the study. Cigarette smoke solution was prepared as previously described (Dusser et al. (1989) J. Clin. Invest. 84:900-906). In brief, cigarette smoke was withdrawn into a polypropylene syringe (35 ml) at a rate of one puff/min (10 times) and bubbled slowly into 20 ml of RPM11640 containing 50 mM Hepes buffer. The smoke solution was then titrated to pH 7,4 and used immediately after preparation.
Immunoassay of MUC5AC Protein. MUC5AC protein was measured as described above. In brief, cell lysates were prepared with PBS at multiple dilutions, and 50 μl of each sample was incubated with bicarbonate-carbonate buffer (50 μl) at 40° C. in a 96-well plate (Maxisorp Nunc, Fisher Scientific, Santa Clara, Calif.), until dry. Plates were washed three times with PBS and blocked with 2% BSA (fraction V, Sigma) for 1 h at room temperature. Plates were again washed three times with PBS and then incubated with 50 μl of mouse monoclonal MUC5AC antibody (1:100) that was diluted with PBS containing 0.05% Tween 20. After 1 h, the wells were washed three times with PBS, and 100 μl horseradish peroxidase-goat anti-mouse IgG conjugate (1:10,000, Sigma) was dispensed into each well. After 1 h, plates were washed three times with PBS. Color reaction was developed with TMB peroxidase solution (Kirkegaard & Perry Laboratories, Gaithersburg, Md.) and stopped with 2N H2SO4. Absorbance was read at 450 nm.

The target in experiment [2] is EGFR (Homo sapiens, UniProt P00533). The experiment can be described thus: Immunoprecipitation of EGF-R and immunoblotting for tyrosine phosphorylation in NCI-H292 cells. The settings on record: within 15 min of stimulus. More on the design: These cells express EGF-R constitutively; endogenous in cells; host or cells: NCI-H292 (human pulmonary mucoepidermoid carcinoma). It is filed as cell-based. The method, then: Immunoprecipitation for EGF-R Protein and Immunoblotting for Tyrosine Phosphorylation. Cells were serum-starved for 24 h and then stimulated with TGFα, H2O2, or the supernatant of activated neutrophils for 15 min. After stimulation, cells were lysed and incubated for 30 min in an orbital shaker at 4° C. To remove insoluble material, cell lysates were centrifuged at 14,000 rpm for 5 min at 4° C. Aliquots of supernatants containing equal amounts of protein were immunoprecipitated with anti-EGF receptor antibody (polyclonal, Ab4, Calbiochem) and 20 μl of protein A-agarose (Santa Cruz) for 2 h at 4° C. Precipitates were washed three times with 0.5 ml of lysis buffer, suspended in SDS sample buffer, and boiled for 5 min. Proteins were separated by SDS-PAGE in 8.0% acrylamide gel. The resulting gel was equilibrated in the transfer buffer: 25 mM Tris-HCl, 192 mM glycine, 20% (vol/vol) methanol, pH 8.3. The proteins were then transferred electrophoretically to nitrocellulose membranes (0.22 μm), blocked with 5% fat-free skimmed milk in PBS containing 0.05% Tween 20 overnight and then incubated with monoclonal anti-phosphotyrosine antibody (1:100,Santa Cruz) for 1 h. Bound antibody was visualized according to a standard protocol for the avidin-biotin-alkaline phosphatase complex method (ABC kit, Vector Laboratories).
Chain of EGFR (P00533 25-1210): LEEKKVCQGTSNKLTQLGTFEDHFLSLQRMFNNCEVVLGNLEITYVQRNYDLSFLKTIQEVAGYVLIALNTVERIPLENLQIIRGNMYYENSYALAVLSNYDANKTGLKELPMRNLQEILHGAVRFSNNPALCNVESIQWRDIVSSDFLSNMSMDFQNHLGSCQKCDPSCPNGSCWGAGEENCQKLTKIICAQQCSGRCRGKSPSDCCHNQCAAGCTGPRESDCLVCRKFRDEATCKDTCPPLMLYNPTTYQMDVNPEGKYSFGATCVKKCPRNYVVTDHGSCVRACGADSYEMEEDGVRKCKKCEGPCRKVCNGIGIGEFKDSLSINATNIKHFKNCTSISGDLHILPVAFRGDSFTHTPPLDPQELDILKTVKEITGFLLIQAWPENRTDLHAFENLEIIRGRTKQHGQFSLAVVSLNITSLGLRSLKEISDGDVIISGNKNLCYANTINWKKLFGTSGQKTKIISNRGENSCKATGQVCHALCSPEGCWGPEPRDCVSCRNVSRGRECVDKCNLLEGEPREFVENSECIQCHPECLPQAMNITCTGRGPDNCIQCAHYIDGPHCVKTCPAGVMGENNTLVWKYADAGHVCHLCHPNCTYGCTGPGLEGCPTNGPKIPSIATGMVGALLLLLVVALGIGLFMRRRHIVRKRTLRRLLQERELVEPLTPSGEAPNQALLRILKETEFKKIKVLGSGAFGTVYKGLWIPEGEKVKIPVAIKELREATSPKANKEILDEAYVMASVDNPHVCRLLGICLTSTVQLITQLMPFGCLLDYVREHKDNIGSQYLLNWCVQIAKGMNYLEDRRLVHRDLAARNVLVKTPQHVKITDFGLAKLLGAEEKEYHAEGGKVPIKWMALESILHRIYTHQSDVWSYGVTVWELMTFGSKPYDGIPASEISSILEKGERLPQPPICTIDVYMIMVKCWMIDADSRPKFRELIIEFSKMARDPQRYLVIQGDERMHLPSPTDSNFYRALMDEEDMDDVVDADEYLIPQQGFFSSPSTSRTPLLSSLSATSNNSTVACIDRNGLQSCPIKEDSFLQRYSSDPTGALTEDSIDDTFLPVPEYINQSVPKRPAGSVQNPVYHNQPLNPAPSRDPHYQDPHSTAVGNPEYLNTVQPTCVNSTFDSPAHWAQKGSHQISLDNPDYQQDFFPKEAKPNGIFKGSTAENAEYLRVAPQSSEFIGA

In experiment [3] the test system is NCI-H292 cells. The experiment can be described thus: In situ hybridization for MUC5AC gene in NCI-H292 cells (Example 2). The format is cell-based, human. Conditions: within 12 h. The method, then:
Cell Culture. NCI-H292 cells, a human pulmonary mucoepidermoid carcinoma cell line, were grown in RPMI 1640 medium containing 10% fetal bovine serum, penicillin (100 U/ml), streptomycin (100 μg/ml) and Hepes (25 mM) at 37° C. in a humidified 5% CO2, water-jacketed incubator. Either 6-well culture plates or 8-chamber slides were used to culture the cells. When confluent, cells were incubated for 1 h with neutrophils (10^6 cells/ml) alone, TNFα alone (recombinant human TNFα, 20 ng/ml, Genzyme, Cambridge, Mass.), IL-8 (recombinant human IL-8, 10^−8 M, Genzyme) alone, fMLP (10^−8 M, Sigma, St. Louis, Mo.) alone, TNFα plus neutrophils, IL-8 plus neutrophils, fMLP plus neutrophils, hydrogen peroxide (H2O2, 200 μM), cigarette smoke solution or TGFα (recombinant human TGFα, 0.1-25 ng/ml, Calbiochem, San Diego, Calif.). The cells were then washed and incubated with fresh medium alone. Experiments were terminated at preselected times (for mRNA, 6 h and 12 h; for protein, 24 h). As controls, cells were incubated with medium alone for same time periods. […] NCI-H292 cells were incubated for 1 h with either neutrophils that had been incubated with TNFα (20 ng/ml) for 1 h and then washed with sterile PBS to avoid contamination with the supernatant (e.g., molecules released from neutrophils), or the NCI-H292 cells were incubated with supernatant only. […]

The test system of experiment [4] is NCI-H292 cells. The experiment can be described thus: Northern analysis for MUC5 gene expression in NCI-H292 cells. It is filed as cell-based, human. Conditions: EGF or TGFα 25 ng/ml, TNFα 20 ng/ml; 12 h, 24 h. Here is the method: (§1) Cell culture. A human pulmonary mucoepidermoid carcinoma cell line, NCI-H292 cells, were grown in RPMI11640 medium containing 10% fetal bovine serum, penicillin (100 U/ml), streptomycin (100 μg/ml) at 37° C. in a humidified 5% CO2 water-jacketed incubator. […] In inhibition studies with an EGF-R tyrosine kinase inhibitor, BIBX1522 (10 μg/ml, generously provided by Boehringer Ingelheim Inc., Ingelheim, Germany), cells were pretreated with BIBX1522 30 min before adding growth factors. After incubation, cells grown in a T-75 flask were used for total RNA extraction or protein extraction, and 8-chamber slides were used for Alcian blue/PAS-staining to visualize mucins.

Experiment [5] deals with NCI-H292 cells. Description: Alcian blue/PAS staining of NCI-H292 cells for mucin glycoproteins. It is filed as cell-based, human. Conditions: TNFα 20 ng/ml; EGF, TGFα each 25 ng/ml. The method, then: as §1
Experiment [6] has as its system pathogen-free rats. The experiment can be described thus: Goblet cell production in pathogen-free rats after tracheal instillation of TNFα and EGF-R ligands. It is filed as in vivo, rat. The settings on record: intratracheal 600 ng, alone. The method, then: Healthy rats. Rats were anesthetized with methohexital sodium (Brevital sodium, 50 mg/kg, i.p.; Eli Lilly & Co., Indianapolis, Ind.) and allowed to breathe spontaneously. […] In each study, sterile PBS (100 μl) was instilled into the trachea as control. […] Rats were pretreated with BIBX1522 (3, 10 or 30 mg/kg, i.p.), 1 h before and 24 h after instillation of TGFα. The trachea and lungs were removed for examination 48 h after the instillation of TGFα.
Tissue preparation. At preselected times during anesthesia, the systemic circulation was perfused with 1% paraformaldehyde in DEPC-treated PBS at a pressure of 120 mmHg. The trachea was then removed and placed in 4% paraformaldehyde for 24 h. After fixation, trachea and lungs were embedded in either JB-4 plus monomer solution A for cell analysis or O.C.T. compound (Sakura Finetek U.S.A., Inc., Torrance, Calif.) for immunohistochemistry and in situ hybridization. The embedded tissues were cut as cross sections ([…] thick) and placed on slides.
Cell analysis. We counted the total number of epithelial cells by counting epithelial cell nuclei over 2 mm of the basal lamina with an oil immersion objective lens (×1000 magnification). The linear length of the basal lamina under each analyzed region of epithelium was determined by tracing the contour of the digitized image of the basal lamina. After instillation of stimuli, “developing” goblet cells form. These cells have Alcian blue/PAS-positive granules, but the size of granules is small, and the number of cytoplasmic granules is few. We call these “developing” goblet cells “pre-goblet cells”, a stage before cells become mature goblet cells. Goblet cells are tall, cuboidal, goblet to low columnar in shape, with abundant Alcian blue/PAS-stained granules filling most of the cytoplasm between the nucleus and the luminal surface. Pre-goblet cells are defined as cells with smaller mucus-stained areas (<1/3 height in epithelium from basement membrane to luminal surface) or with sparsely and lightly Alcian blue/PAS-stained, small granules. Ciliated cells are recognized by their ciliated borders, lightly stained cytoplasm, and large round nuclei. Non-granulated secretory cells are columnar in shape and extend from the lumen to the basal lamina. The cytoplasm stains light pink color, and a few tiny PAS-positive and Alcian blue-negative granules are observed in the cytoplasm. Basal cells are small flattened cells with a large nucleus, located just above the basal lamina but not reaching the airway lumen.
Quantification of goblet cell production. Goblet cell production, was determined by the volume density of Alcian blue/PAS-stained mucosubstances on the mucosal surface epithelium using a semi-automatic imaging system described elsewhere (Weber et al. (1984) Science 224:294-297). We measured the Alcian blue/PAS-positive stained area and the total epithelial area and expressed the data as the percentage of the total area stained by Alcian blue-PAS. The analysis was performed with the public domain NIH Image program (developed at the U.S. National Institute of Health and available from the Internet by anonymous FTP from zippy.nimh.gov or on floppy disk from the National Technical Information Service, Springfield, Va., part number PB95-500195GEI).
Immunohistochemical localization of EGF-R in rat epithelium. The localization of EGF-R was examined using immunchistochemical staining with an antibody to EGF-R (Calbiochem, San Diego, Calif.) in frozen sections of rat trachea. After perfusion with 1% paraformaldehyde in PBS, tissues were placed in 4% paraformaldehyde in PBS for 1 h and then removed in 30% sucrose for cryoprotection overnight. Tracheas were embedded in O.C.T. compound (Sakura Finetek U.S.A., Inc., Torrance, Calif.) and frozen. Frozen sections (5 μm) were cut and placed on glass slides (Superfrost Plus, Fisher Scientific, Pittsburgh, Pa.). Immunostaining was performed similarly to the in vitro studies.

Take `OO` [H2O2, hydrogen peroxide]: in experiment [1], the “maximum response in MUC5AC synthesis relative to the response to TGFα” value was “half”. Moreover, in experiment [1] (H2O2 200 μM, cigarette smoke solution), the “MUC5AC synthesis in NCI-H292 cells, stimulus alone” value is reported as “caused MUC5AC synthesis”. The EGF-R-specific tyrosine phosphorylation entry in experiment [2] is reported as “induced EGF-R-specific tyrosine phosphorylation”. Further, the MUC5AC gene expression entry in experiment [3] was “up-regulated”.
In the case of “EGF: recombinant human epidermal growth factor (Genzyme)”, the “MUC5 gene expression on incubation with mediator” value in experiment [4] is “clearly expressed at 24 h”. Further, the “PAS-positive staining on incubation with mediator” value in experiment [5] is on record as “increased PAS-positive staining”. In experiment [6], the “epithelial production of mucous glycoconjugates” value is “had no effect”.
